The values that follow come from US10933132B2, “Combination of epigenetic factors and bispecific compounds targeting CD33 and CD3 in the treatment of myeloid leukemia” (AMGEN RESEARCH (MUNICH) GMBH, priority 2013, dated 2021).

Data set [1] concerns the target T1, CD19 B-cell surface antigen and CD3 (Homo sapiens, UniProt P07766+P15391).
T1 construct: host or cells: patients (endogenous CD19 on B cells, CD3 epsilon on T cells)
The following applies: patients with B-cell lymphomas and B precursor ALL; cited from earlier work.

In another data set the test system is AML target cells. The settings on record: co-therapy of lintuzumab and 5-azacytidine; cited from earlier work.
For a further data set, the system named is AML cells or macrophages. The following applies: incubation of AML cells or macrophages; cited from earlier work.
The subject of data set [2] is KG-1a cells. Put plainly: CD33 expression by flow cytometry (PE anti-CD33 P67.6) after pretreatment with epigenetic drug. Type of data set: cell-based, human. The settings on record: 3-day pretreatment, relative to untreated. For orientation: In flow cytometry, cells or beads pass a laser one at a time.
Text: CD33 expression on parental AML cells and cell lines was quantified by flow cytometry using a phycoerythrin (PE)-conjugated anti-CD33 antibody (clone P67.6; BD Biosciences, San Jose, Calif., USA) (see Walter et al. Blood. 2005; 105(3):1295-1302).
Another data set addresses T2, CD33 (Homo sapiens, UniProt P20138).
T2 construct: myeloid differentiation antigen found on AML blasts in most patients; host or cells: AML patients (endogenous CD33 on blasts)
The following applies: cited from earlier work.

A further data set concerns OCI-AML3 cells. Put plainly: AMG 330-induced cytotoxicity with healthy donor T-cells (DAPI, 48 h) after epigenetic drug pretreatment. The settings on record: 3-day pretreatment, relative to untreated cells. Type of data set: cell-based, human.
In data set [3] the test system is KG-1a cells. The description is as above. The following applies: 3-day pretreatment, relative to untreated cells.
Experimental: Parental OCI-AML3 and KG-1a cells were either left untreated or pretreated with panobinostat for 72 hours. […] 48 hours later, cell counts were determined and cytotoxicity was assessed with DAPI staining to quantify drug-specific cytotoxicity.
Parental KG-1a cells were either left untreated or pretreated with azacitidine for 72 hours. […] 48 hours later, cell counts were determined and cytotoxicity was assessed with DAPI staining to quantify drug-specific cytotoxicity.
(§2) For the experimental settings mononuclear cells were collected from healthy adult volunteers via leukapheresis, and T cells enriched through magnetic cell sorting (Pan T Cell Isolation Kit II; Miltenyi Biotec, Auburn, Calif.). Thawed cell aliquots were labeled with 3 μM CellVue Burgundy (eBioscience, San Diego, Calif.) according to the manufacturer's instructions.
(§3) For the quantification of compound induces cytotoxicity AML cells were taken during exponential growth and incubated at 37° C. […] After 48 hours, cell numbers and drug-induced cytotoxicity, using 4′,6-diamidino-2-phenylindole (DAPI) to detect non-viable cells, were determined using a LSRII flow cytometer (BD Biosciences, San Jose, Calif.) and analyzed with FlowJo (Tree Star, Ashland, Oreg.). AML cells were identified by forward/side scatter properties and negativity for CellVue Burgundy dye.
A further data set has as its system HL-60 AML cells. The data set is described as follows: Hydroxyurea up-regulation of CD33 on AML cell lines, flow cytometry. It is filed as cell-based. The settings on record: for CD33 MFI Ratio: day 3, untreated 134.9. On the procedure:
(§1) AML cell lines HL-60, PL21, OCI-AML3, KG1a and MV4-11 were seeded in 24-well plates at 1×10^6 cells/ml on day 0. Cells were either left untreated (UT) or treated with 10 μM (H1) or 100 μM (H2) hydroxyurea (Sigma) for three consecutive days (day 0, day 1 and day 2). On day 3, cells were harvested, counted and analyzed for changes in CD33 surface expression level by flow cytometry.

Another data set relates to PL21 AML cells. The description is as above. Type of data set: cell-based. The following applies: for CD33 MFI Ratio: day 3, untreated 166.9. Here is the method:
as §1

The next data set deals with primary AML cells. The data set is described as follows: Hydroxyurea up-regulation of CD33 on primary AML cells, flow cytometry. It is filed as cell-based. On the procedure: Three primary AML samples were seeded in a 12-well plates at 1×10^6 cells/ml, as previously described (Krupka, Subklewe et. al, Blood 2014). Cells were either left untreated (UT) or treated with 10 μM (H1) or 100 μM (H2) hydroxyurea (Sigma) for three consecutive days (day 0, day 1 and day 2). On day 1-day 3, cells were harvested, counted and analyzed for changes in CD33 surface expression by flow cytometry.

T2 sequence (P20138 18-364): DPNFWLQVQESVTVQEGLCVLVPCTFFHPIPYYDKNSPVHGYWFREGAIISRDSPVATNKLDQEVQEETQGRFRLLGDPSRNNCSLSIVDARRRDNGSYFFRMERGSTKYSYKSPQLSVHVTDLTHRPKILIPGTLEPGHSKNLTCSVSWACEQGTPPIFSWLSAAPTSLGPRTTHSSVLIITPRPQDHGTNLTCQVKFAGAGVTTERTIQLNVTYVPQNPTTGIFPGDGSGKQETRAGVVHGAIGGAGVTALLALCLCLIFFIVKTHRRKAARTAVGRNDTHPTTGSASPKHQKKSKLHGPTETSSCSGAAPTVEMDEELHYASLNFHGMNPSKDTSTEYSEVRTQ
Experimental for OCI-AML3 cells: Parental OCI-AML3 and KG-1a cells were either left untreated or pretreated with panobinostat for 72 hours. […] 48 hours later, cell counts were determined and cytotoxicity was assessed with DAPI staining to quantify drug-specific cytotoxicity. Results are shown as mean±SEM from 3 independent experiments performed in duplicate wells using a single healthy donor as source for exogenous T-cells.
as §2, §3

For “blinatumomab: bispecific antibody directed at CD19 and the CD3 component of the T-cell receptor complex”, the therapeutic efficacy entry in [1] is given as “therapeutic efficacy was shown”.

As for `Nc1ncn([C@@H]2O[C@H](CO)[C@@H](O)[C@H]2O)c(=O)n1` [azacitidine, 5-azacytidine], the “lintuzumab-mediated ADCC” value in the data set with AML target cells is listed as “improved”. The CD33 expression result in the data set on AML cells or macrophages was “did not affect”; with KG-1a cells [2] it was “significant increase”.

With “lintuzumab: intact humanized CD33 antibody”, in the data set with CD33 (phase III trial, combined with a triple chemotherapy regimen), the survival benefit entry is recorded as “no survival benefit”. In the data set with CD33 (single-agent phase I and II trial), the clinical response result is recorded as “complete remission in individual patients”.

On to `Cc1[nH]c2ccccc2c1CCNCc1ccc(/C=C/C(=O)NO)cc1` [panobinostat], for which the “sensitivity to AMG 330-induced cytotoxicity” value in the data set with OCI-AML3 cells and in the data set with KG-1a cells [3] was “modestly more sensitive” each time.

For the compound `NC(=O)NO` [hydroxyurea, Hydroxyurea], the “CD33 MFI Ratio” value in the data set on HL-60 AML cells (HL-60, H1 = 10 μM hydroxyurea on three consecutive days) is given as 171.3; with HL-60 AML cells (HL-60, H2 = 100 μM hydroxyurea on three consecutive days), 210.0; in the data set with PL21 AML cells (PL21, H1 = 10 μM hydroxyurea on three consecutive days), 177.9; with PL21 AML cells (PL21, H2 = 100 μM hydroxyurea on three consecutive days), 191.8; in the data set on primary AML cells (primary AML cells patient 2, day 1, H1 = 10 μM hydroxyurea, untreated 3.7), 4.2; in the data set with primary AML cells (primary AML cells patient 2, day 1, H2 = 100 μM hydroxyurea, untreated 3.7), 4.5. In addition, the “CD33 MFI Ratio” value with primary AML cells (primary AML cells patient 2, day 2, H1 = 10 μM hydroxyurea, untreated 4.8) is 4.2; in the data set on primary AML cells (primary AML cells patient 2, day 2, H2 = 100 μM hydroxyurea, untreated 4.8), 5.1. In addition, the “upregulation of CD33 (in words)” value is listed as “upregulation of CD33” with HL-60 AML cells (HL-60 AML cells, 10 and 100 μM); “upregulation of CD33” with PL21 AML cells (PL21 AML cells, 10 and 100 μM). Further, in the data set on primary AML cells (three primary AML samples, day 1 and day 2 of incubation), the “up-regulation of CD33 in patient samples (in words)” value was “up-regulation of CD33 in 1 of 3 patient samples”.
